Source: the supplement of paper PMC10307832

How the values were obtained:
Experiment in all cases: relative viability (nuclei count vs DMSO), 5 days (fraction); higher = more cells survive
AT-7519 + Decitabine = compound: O=C(NC1CCNCC1)c1n[nH]cc1NC(=O)c1c(Cl)cccc1Cl [AT-7519] + Nc1ncn([C@H]2C[C@H](O)[C@@H](CO)O2)c(=O)n1 [Decitabine] (partner 2 µM)
Summary of the method: (§1)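 Relative viability was taken as the ratio of nuclei in treated wells to nuclei in vehicle wells. Lung cancer cell lines in 1536-well plates received compounds by pin tool one day after seeding, either one drug alone or a fixed anchor-drug dose plus five library-drug doses (not always all listed) in √10 steps. Nuclei were counted on 4× images after 5 days of treatment, and values are medians of duplicate plates.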

[1] = compound: C1=CC2=C(C=C(C(=C2N=C1)O)N=NC3=CC4=C(C=C3)C=C(C=C4)S(=O)(=O)O)S(=O)(=O)O + O=C(c1cc(Cc2n[nH]c(=O)c3ccccc23)ccc1F)N1CCN(C(=O)C2CC2)CC1 [Olaparib] (partner 8 µM)
Summary of the method: as §1

[2] = compound: C1=CC2=C(C=C(C(=C2N=C1)O)N=NC3=CC4=C(C=C3)C=C(C=C4)S(=O)(=O)O)S(=O)(=O)O + CS(=O)(=O)CCNCc1ccc(-c2ccc3ncnc(Nc4ccc(OCc5cccc(F)c5)c(Cl)c4)c3c2)o1 [Lapatinib] (partner 2 µM)
Summary of the method: as §1

AT-7519 + Tozasertib = compound: O=C(NC1CCNCC1)c1n[nH]cc1NC(=O)c1c(Cl)cccc1Cl [AT-7519] + Cc1cc(Nc2cc(N3CCN(C)CC3)nc(Sc3ccc(NC(=O)C4CC4)cc3)n2)n[nH]1 [Tozasertib] (partner 0.1 µM)
Summary of the method: as §1

Cell Line	relative viability (AT-7519 + Decitabine; first compound 0.01 µM)	relative viability (AT-7519 + Decitabine; first compound 0.03162 µM)	relative viability (AT-7519 + Decitabine; first compound 0.3162 µM)	relative viability (AT-7519 + Decitabine; first compound 1 µM)	relative viability ([1]; first compound 0.08 µM)	relative viability ([1]; first compound 0.253 µM)	relative viability ([1]; first compound 0.8 µM)	relative viability ([1]; first compound 2.53 µM)	relative viability ([1]; first compound 8 µM)	relative viability ([2]; first compound 0.08 µM)	relative viability ([2]; first compound 0.253 µM)	relative viability ([2]; first compound 0.8 µM)	relative viability ([2]; first compound 2.53 µM)	relative viability ([2]; first compound 8 µM)	relative viability (AT-7519 + Tozasertib; first compound 0.01 µM)	relative viability (AT-7519 + Tozasertib; first compound 0.03162 µM)	relative viability (AT-7519 + Tozasertib; first compound 0.3162 µM)	relative viability (AT-7519 + Tozasertib; first compound 1 µM)
201T	0.915	0.853	0.831	0.862	0.846	0.82	0.871	0.852	0.832	0.975	1.04	1.01	0.997	1.02	1.01	1.01	0.946	0.977
A549	0.233	0.22	0.28	0.251	0.469	0.331	0.299	0.313	0.135	1.08	0.991	0.972	0.947	1.01	–	–	–	–
A-427	0.539	0.508	0.604	0.53	0.727	0.763	0.709	0.825	0.736	1.16	0.825	0.974	1.05	1.1	0.26	0.211	0.207	0.14
ABC-1	1.22	1.08	0.859	0.926	0.634	0.762	0.754	0.684	0.916	1.25	0.989	1.08	1.18	1.02	0.199	0.155	0.189	0.195
BEN	0.754	0.663	0.771	0.744	0.868	1.13	1.05	1.27	0.974	0.956	0.623	0.669	0.766	0.654	0.391	0.459	0.501	0.597
CAL-12T	–	–	–	–	0.85	0.678	0.648	0.681	0.74	0.593	0.58	0.629	0.63	0.663	0.298	0.33	0.213	0.122
COR-L23	0.455	0.465	0.388	0.197	0.308	0.344	0.35	0.394	0.296	1.3	0.971	0.92	1	1.15	0.177	0.189	0.148	0.144
COR-L 105	0.687	0.682	0.608	0.351	0.676	0.62	0.732	0.701	0.83	0.401	0.394	0.378	0.377	0.358	0.327	0.382	0.378	0.413
Calu-6	–	–	–	–	0.55	0.546	0.55	0.58	0.658	1.16	1.03	1.01	1.02	1.03	–	–	–	–
ChaGo-K-1	0.534	0.526	0.519	0.461	0.445	0.405	0.438	0.422	0.341	–	–	–	–	–	0.224	0.23	0.215	0.204
